Assay results taken from PubChem BioAssay (NCI).
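Five concentrations, 48 hours, 96-well plates. Here, GI50 denotes the concentration required for 50% inhibition of growth. TGI is the concentration that stops growth completely.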

Experiments:
Test in all cases: NCI-60 cell line screen, 48 h
A498 renal = system: A498 renal
A549 NSCLC = system: A549 NSCLC
ACHN renal = system: ACHN renal
BT-549 breast = system: BT-549 breast
CCRF-CEM leukemia = system: CCRF-CEM leukemia
COLO 205 colon = system: COLO 205 colon
DU-145 prostate = system: DU-145 prostate
EKVX NSCLC = system: EKVX NSCLC
HCC-2998 colon = system: HCC-2998 colon
HCT-116 colon = system: HCT-116 colon
HCT-15 colon = system: HCT-15 colon
HL-60(TB) leukemia = system: HL-60(TB) leukemia
HOP-62 NSCLC = system: HOP-62 NSCLC
HOP-92 NSCLC = system: HOP-92 NSCLC
HS 578T breast = system: HS 578T breast
HT29 colon = system: HT29 colon
IGROV1 ovarian = system: IGROV1 ovarian
K-562 leukemia = system: K-562 leukemia
KM12 colon = system: KM12 colon
LOX IMVI melanoma = system: LOX IMVI melanoma
M14 melanoma = system: M14 melanoma
MALME-3M melanoma = system: MALME-3M melanoma
MCF7 breast = system: MCF7 breast
MDA-MB-231 breast = system: MDA-MB-231 breast
MDA-MB-435 = system: MDA-MB-435
MOLT-4 leukemia = system: MOLT-4 leukemia
NCI-H226 lung = system: NCI-H226 lung
NCI-H23 lung = system: NCI-H23 lung
NCI-H460 lung = system: NCI-H460 lung
NCI-H522 lung = system: NCI-H522 lung
NCI/ADR-RES ovarian = system: NCI/ADR-RES ovarian
OVCAR-3 ovarian = system: OVCAR-3 ovarian
OVCAR-4 ovarian = system: OVCAR-4 ovarian
OVCAR-5 ovarian = system: OVCAR-5 ovarian
OVCAR-8 ovarian = system: OVCAR-8 ovarian
RPMI-8226 leukemia = system: RPMI-8226 leukemia
RXF 393 renal = system: RXF 393 renal
SF-268 CNS = system: SF-268 CNS
SF-295 CNS = system: SF-295 CNS
SF-539 CNS = system: SF-539 CNS
SK-MEL-2 melanoma = system: SK-MEL-2 melanoma
SK-MEL-28 melanoma = system: SK-MEL-28 melanoma
SK-MEL-5 melanoma = system: SK-MEL-5 melanoma
SK-OV-3 ovarian = system: SK-OV-3 ovarian
SN12C renal = system: SN12C renal
SNB-19 CNS = system: SNB-19 CNS
SNB-75 CNS = system: SNB-75 CNS
SR leukemia = system: SR leukemia
SW-620 colon = system: SW-620 colon
T-47D breast = system: T-47D breast
TK-10 renal = system: TK-10 renal
U251 CNS = system: U251 CNS
UACC-257 melanoma = system: UACC-257 melanoma
UO-31 renal = system: UO-31 renal

Q: Which GI50 (A498 renal) does the source give for `CS(=O)(=O)OCCn1c2c(c3c(O)cccc31)C(=O)c1ccccc1-2` here?
A: > 100 µM

Q: What about the TGI (A498 renal) of the same molecule?
A: > 100 µM

Q: What about the GI50 (A549 NSCLC) of the same molecule?
A: > 100 µM

Q: And the TGI (A549 NSCLC)?
A: > 100 µM

Q: And the GI50 (ACHN renal)?
A: 60.3 µM

Q: And the TGI (ACHN renal)?
A: > 100 µM

Q: And the GI50 (BT-549 breast)?
A: > 100 µM

Q: What about the TGI (BT-549 breast) of the same molecule?
A: > 100 µM

Q: And the GI50 (CCRF-CEM leukemia)?
A: 37.1 µM

Q: And the TGI (CCRF-CEM leukemia)?
A: > 100 µM

Q: What about the GI50 (COLO 205 colon) of the same molecule?
A: > 100 µM

Q: And the TGI (COLO 205 colon)?
A: > 100 µM

Q: What about the GI50 (DU-145 prostate) of the same molecule?
A: > 100 µM

Q: What about the TGI (DU-145 prostate) of the same molecule?
A: > 100 µM

Q: What about the GI50 (EKVX NSCLC) of the same molecule?
A: > 100 µM

Q: What about the TGI (EKVX NSCLC) of the same molecule?
A: > 100 µM

Q: And the GI50 (HCC-2998 colon)?
A: 36 µM

Q: What about the TGI (HCC-2998 colon) of the same molecule?
A: > 100 µM

Q: And the GI50 (HCT-116 colon)?
A: 44.7 µM

Q: What about the TGI (HCT-116 colon) of the same molecule?
A: > 100 µM

Q: What about the GI50 (HCT-15 colon) of the same molecule?
A: > 100 µM

Q: What about the TGI (HCT-15 colon) of the same molecule?
A: > 100 µM

Q: What about the GI50 (HL-60(TB) leukemia) of the same molecule?
A: 30.9 µM

Q: And the TGI (HL-60(TB) leukemia)?
A: > 100 µM

Q: What about the GI50 (HOP-62 NSCLC) of the same molecule?
A: 87.1 µM

Q: And the TGI (HOP-62 NSCLC)?
A: > 100 µM

Q: And the GI50 (HOP-92 NSCLC)?
A: 24.7 µM

Q: And the TGI (HOP-92 NSCLC)?
A: > 100 µM

Q: What about the GI50 (HS 578T breast) of the same molecule?
A: > 100 µM

Q: And the TGI (HS 578T breast)?
A: > 100 µM

Q: And the GI50 (HT29 colon)?
A: 99.8 µM

Q: What about the TGI (HT29 colon) of the same molecule?
A: > 100 µM

Q: And the GI50 (IGROV1 ovarian)?
A: > 100 µM

Q: What about the TGI (IGROV1 ovarian) of the same molecule?
A: > 100 µM

Q: What about the GI50 (K-562 leukemia) of the same molecule?
A: > 100 µM

Q: And the TGI (K-562 leukemia)?
A: > 100 µM

Q: What about the GI50 (KM12 colon) of the same molecule?
A: 80.2 µM

Q: And the TGI (KM12 colon)?
A: > 100 µM

Q: And the GI50 (LOX IMVI melanoma)?
A: 54.1 µM

Q: What about the TGI (LOX IMVI melanoma) of the same molecule?
A: > 100 µM

Q: What about the GI50 (M14 melanoma) of the same molecule?
A: > 100 µM

Q: And the TGI (M14 melanoma)?
A: > 100 µM

Q: What about the GI50 (MALME-3M melanoma) of the same molecule?
A: > 100 µM

Q: And the TGI (MALME-3M melanoma)?
A: > 100 µM

Q: What about the GI50 (MCF7 breast) of the same molecule?
A: > 100 µM

Q: What about the TGI (MCF7 breast) of the same molecule?
A: > 100 µM

Q: And the GI50 (MDA-MB-231 breast)?
A: 20.4 µM

Q: What about the TGI (MDA-MB-231 breast) of the same molecule?
A: > 100 µM

Q: And the GI50 (MDA-MB-435)?
A: 46 µM

Q: And the TGI (MDA-MB-435)?
A: > 100 µM

Q: And the GI50 (MOLT-4 leukemia)?
A: 36.5 µM

Q: What about the TGI (MOLT-4 leukemia) of the same molecule?
A: > 100 µM

Q: And the GI50 (NCI-H226 lung)?
A: 39.7 µM

Q: What about the TGI (NCI-H226 lung) of the same molecule?
A: > 100 µM

Q: What about the GI50 (NCI-H23 lung) of the same molecule?
A: > 100 µM

Q: What about the TGI (NCI-H23 lung) of the same molecule?
A: > 100 µM

Q: What about the GI50 (NCI-H460 lung) of the same molecule?
A: > 100 µM

Q: And the TGI (NCI-H460 lung)?
A: > 100 µM

Q: What about the GI50 (NCI-H522 lung) of the same molecule?
A: 95.1 µM

Q: What about the TGI (NCI-H522 lung) of the same molecule?
A: > 100 µM

Q: And the GI50 (NCI/ADR-RES ovarian)?
A: > 100 µM

Q: What about the TGI (NCI/ADR-RES ovarian) of the same molecule?
A: > 100 µM

Q: What about the GI50 (OVCAR-3 ovarian) of the same molecule?
A: 66.6 µM

Q: What about the TGI (OVCAR-3 ovarian) of the same molecule?
A: > 100 µM

Q: And the GI50 (OVCAR-4 ovarian)?
A: > 100 µM

Q: And the TGI (OVCAR-4 ovarian)?
A: > 100 µM

Q: And the GI50 (OVCAR-5 ovarian)?
A: > 100 µM

Q: And the TGI (OVCAR-5 ovarian)?
A: > 100 µM

Q: What about the GI50 (OVCAR-8 ovarian) of the same molecule?
A: > 100 µM

Q: And the TGI (OVCAR-8 ovarian)?
A: > 100 µM

Q: And the GI50 (RPMI-8226 leukemia)?
A: 19.7 µM

Q: What about the TGI (RPMI-8226 leukemia) of the same molecule?
A: > 100 µM

Q: What about the GI50 (RXF 393 renal) of the same molecule?
A: > 100 µM

Q: And the TGI (RXF 393 renal)?
A: > 100 µM

Q: What about the GI50 (SF-268 CNS) of the same molecule?
A: 78.5 µM

Q: And the TGI (SF-268 CNS)?
A: > 100 µM

Q: And the GI50 (SF-295 CNS)?
A: 84.3 µM

Q: And the TGI (SF-295 CNS)?
A: > 100 µM

Q: And the GI50 (SF-539 CNS)?
A: > 100 µM

Q: And the TGI (SF-539 CNS)?
A: > 100 µM

Q: And the GI50 (SK-MEL-2 melanoma)?
A: > 100 µM

Q: And the TGI (SK-MEL-2 melanoma)?
A: > 100 µM

Q: What about the GI50 (SK-MEL-28 melanoma) of the same molecule?
A: > 100 µM

Q: What about the TGI (SK-MEL-28 melanoma) of the same molecule?
A: > 100 µM

Q: And the GI50 (SK-MEL-5 melanoma)?
A: > 100 µM

Q: What about the TGI (SK-MEL-5 melanoma) of the same molecule?
A: > 100 µM

Q: And the GI50 (SK-OV-3 ovarian)?
A: 29 µM

Q: What about the TGI (SK-OV-3 ovarian) of the same molecule?
A: > 100 µM

Q: What about the GI50 (SN12C renal) of the same molecule?
A: 33.7 µM

Q: What about the TGI (SN12C renal) of the same molecule?
A: > 100 µM

Q: And the GI50 (SNB-19 CNS)?
A: 40.7 µM

Q: And the TGI (SNB-19 CNS)?
A: > 100 µM

Q: What about the GI50 (SNB-75 CNS) of the same molecule?
A: > 100 µM

Q: What about the TGI (SNB-75 CNS) of the same molecule?
A: > 100 µM

Q: What about the GI50 (SR leukemia) of the same molecule?
A: 10.3 µM

Q: And the TGI (SR leukemia)?
A: > 100 µM

Q: And the GI50 (SW-620 colon)?
A: > 100 µM

Q: And the TGI (SW-620 colon)?
A: > 100 µM

Q: And the GI50 (T-47D breast)?
A: 64.7 µM

Q: And the TGI (T-47D breast)?
A: > 100 µM

Q: And the GI50 (TK-10 renal)?
A: > 100 µM

Q: What about the TGI (TK-10 renal) of the same molecule?
A: > 100 µM

Q: And the GI50 (U251 CNS)?
A: 77.3 µM

Q: And the TGI (U251 CNS)?
A: > 100 µM

Q: What about the GI50 (UACC-257 melanoma) of the same molecule?
A: > 100 µM

Q: And the TGI (UACC-257 melanoma)?
A: > 100 µM

Q: And the GI50 (UO-31 renal)?
A: > 100 µM

Q: What about the TGI (UO-31 renal) of the same molecule?
A: > 100 µM
